{"source": "patent EP3441078A1", "about": "“PHARMACEUTICAL PRODUCT FOR TREATING LUPUS ERY[…] COMBINED IMMUNE DEFECT, AND PREPARATION AND APPLICATION THEREOF” (Beijing Lu De Kai Qi Co., Ltd., priority 2016, dated 2017)", "key": {"[1]": {"tested_on": "sperm abnormality in mice", "conditions": "male mice, 40mg/kg•bw, positive control", "protocol": "1. […] The walnut extract, wormwood extract, American ginseng extract and shí hú extract were respectively taken, treated in a 70°C water bath for 1 hour, soaked for 12 hours, and concentrated for testing.\n(§1) The healthy Kunming mice provided by the Experimental Animal Center of the National Institute for the Control of Pharmaceutical and Biological Products were selected.\n50 sexually mature male mice weighing 30-35 g were randomly divided into 5 groups. […] The doses of the anti-lupus erythematosus pharmaceutical product for combined immunization according to the present invention were 2.00, 4.00, and 6.00 g/kg•bw, respectively, and the desired concentration were adjusted with distilled water. The mice were administered via oral gavage once a day for 5 days, and the animals were sacrificed 30 days after the last gavage. The epididymis was acquired and sectioned and stained with eosin. Five animals were counted in each group and 1000 intact sperm were counted per animal. The incidence of sperm abnormality (in percentage) was calculated and statistically processed."}, "[2]": {"tested_on": "polychromatic erythrocytes in bone marrow of mice", "conditions": "50mg/kg•bw, positive control; for Number of Micronuclei(in Ge): 5000 cells inspected; for Permillage of Micronuclei: P<0.01 vs negative control", "protocol": "as §1\nThe assay was carried out via oral gavage and the administration was performed twice at intervals of 24 hrs. 50 mice weighing 25-30 g were randomly divided into 5 groups according to body weight, 10 in each group, half male and half female. […] The doses of the anti-lupus erythematosus pharmaceutical product for combined immunization according to the present invention were 2.00, 4.00, and 6.00 g/kg•bw, respectively, which were adjusted to the desired concentration with distilled water. The animals were sacrificed by cervical dislocation six hours after the last administration of the anti-lupus erythematosus pharmaceutical product for combined immunization according to the present invention. The bone marrow of sternum was acquired and diluted with calf serum, smeared, fixed in methanol, and stained with Giemsa. Under the light microscope, 1000 polychromatic erythrocytes (PRC) were measured per animal, and the incidence of micronucleus was determined by the permillage of micronucleus-containing PRC and statistically processed. […] Kunming healthy mice provided by Laboratory Animal Center of National Institutes for Food and Pharmaceutical product Control were selected.\nThe test was carried out by two-time intragastric administration at an interval of 24 hours.50 mice weighing 25-30 g were randomly divided into 5 groups according to their body weight. They were randomly divided into 5 groups according to their body weight, with 10 mice in each group, half male and half female. […] The doses of the anti-lupus erythematosus pharmaceutical product for combined immunization of the present invention were 2.00, 4.00 and 6.00 g/kg•bw respectively, and were mixed with distilled water to the desired concentration. The animals were sacrificed by cervical dislocation 6 hours after the last administration of the anti-lupus erythematosus pharmaceutical product for combined immunization of the present invention. The sternum bone marrow was diluted with calf serum, fixed with methanol, and stained with Giemsa. Under the light microscope, 1000 polychromatic erythrocytes (PRC) were counted per animal, and the incidence of micronuclei was measured by the permillage of micronucleus-containing PRC and statistically processed."}}, "note": "Where two headings read alike, the source gives them in different places. Marks after values point to notes of the source that are not given here.", "data": [{"smiles": "O=P1(N(CCCl)CCCl)NCCCO1", "note": "(stereo not drawn) [cp, cyclophosphamide]", "values": [{"measurement": "Number of Abnormal Sperms(in Ge)", "setting": "[1]; 5000 sperms inspected", "result": 480}, {"measurement": "Percentage of Abnormal Sperms", "setting": "[1]; P<0.01 vs negative control", "result": "9.6* %"}, {"measurement": "Number of Micronuclei(in Ge)", "setting": "[2]; Female mice", "result": 150}, {"measurement": "Permillage of Micronuclei", "setting": "[2]; Female mice", "result": "30.0* ‰"}, {"measurement": "Number of Micronuclei(in Ge)", "setting": "[2]; Male mice", "result": 150}, {"measurement": "Permillage of Micronuclei", "setting": "[2]; Male mice", "result": "30.0* ‰"}]}]}
